Legend:
Assay in all cases: drug sensitivity score (DSS3, normalised partial AUC of % inhibition dose-response) (DSS (score)); higher = more sensitive (stronger inhibition of viability); extreme values may be limits of the assay
FMOC03 = patient-derived mucinous ovarian cancer cells; conditions: 72 h; library: FO5A; assay format: 2D, 384-well, CellTiter-Glo
Procedure, shortened: (§1)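 On 384-well flat clear-bottom plates carrying compounds at five concentrations across a 10,000-fold range, patient-derived ovarian cancer cells below passage 10 were incubated for 72 h at 37 °C with 5% CO2. CellTiter-Glo readout of viability was processed in Breeze. A higher drug sensitivity score, defined as the partial area under the percent-inhibition dose-response curve divided by the log of the upper asymptote, means greater sensitivity.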

FMOC25_2 = patient-derived low-grade serous ovarian cancer cells; conditions: 72 h; library: FO5A; assay format: 2D, 384-well, CellTiter-Glo
Procedure, shortened: as §1

FMOC02_3 = patient-derived low-grade serous ovarian cancer cells; conditions: 72 h; library: FO5A; assay format: 2D, 384-well, CellTiter-Glo
Procedure, shortened: as §1

FMOC14 = patient-derived high-grade serous ovarian cancer cells; conditions: 72 h; library: FO5A; assay format: 2D, 384-well, CellTiter-Glo
Procedure, shortened: as §1

FMOC25_1 = patient-derived low-grade serous ovarian cancer cells; conditions: 72 h; library: FO4B; assay format: 2D, 384-well, CellTiter-Glo
Procedure, shortened: as §1

FMOC22 = patient-derived mucinous ovarian cancer cells; conditions: 72 h; library: FO5A; assay format: 2D, 384-well, CellTiter-Glo
Procedure, shortened: as §1

FMOC24 = patient-derived high-grade serous ovarian cancer cells; conditions: 72 h; library: FO5A; assay format: 2D, 384-well, CellTiter-Glo
Procedure, shortened: as §1

FMOC02_2 = patient-derived low-grade serous ovarian cancer cells; conditions: 72 h; library: FO5A; assay format: 2D, 384-well, CellTiter-Glo
Procedure, shortened: as §1

FMOC09 = patient-derived high-grade serous ovarian cancer cells; conditions: 72 h; library: FO5A; assay format: 2D, 384-well, CellTiter-Glo
Procedure, shortened: as §1

FMOC06 = patient-derived mucinous ovarian cancer cells; conditions: 72 h; library: FO5A; assay format: 2D, 384-well, CellTiter-Glo
Procedure, shortened: as §1

SMILES | drug sensitivity score (FMOC03) | drug sensitivity score (FMOC25_2) | drug sensitivity score (FMOC02_3) | drug sensitivity score (FMOC14) | drug sensitivity score (FMOC25_1) | drug sensitivity score (FMOC22) | drug sensitivity score (FMOC24) | drug sensitivity score (FMOC02_2) | drug sensitivity score (FMOC09) | drug sensitivity score (FMOC06)
Nc1nc(Cl)nc2c1ncn2[C@@H]1O[C@H](CO)[C@@H](O)[C@@H]1F [Clofarabine] | 4.1 | 16.5 | 13.7 | 0 | 8.5 | 10.5 | 4.9 | 8.9 | 7.8 | 5.3
CCN(CC)CCOc1ccc(C(=C(Cl)c2ccccc2)c2ccccc2)cc1 [Clomifene] | 7 | 7.2 | 9.1 | 5 | 4.7 | 4.8 | 9.9 | 8.2 | 5 | 5.6
O=C(c1ccc(F)c(F)c1Nc1ccc(I)cc1F)N1CC(O)([C@@H]2CCCCN2)C1 [Cobimetinib] | 10.3 | 9.2 | 13.7 | 0.1 | 10 | 7.5 | 1.8 | 13.3 | 6.1 | 9
COc1c(OCCCN2CCOCC2)ccc2c1N=C(NC(=O)c1cnc(N)nc1)N1CCN=C21 [Copanlisib] | 8.5 | 16.8 | 19.6 | 6.6 | 11.7 | 5.2 | 3.1 | 17.4 | 10.5 | 12.8
CC1(COc2ccc3c(c2)ncn3-c2ccc3cccc(N4CCC(N)CC4)c3n2)COC1 [Crenolanib] | 4.4 | 4.8 | 4.6 | 4.4 | 4.3 | 5 | 9.25 | 6.1 | 3 | 4.4
Nc1ccn([C@@H]2O[C@H](CO)[C@@H](O)[C@@H]2O)c(=O)n1 [Cytarabine] | 2.3 | 6.3 | 9.3 | 0 | 3.4 | 6.4 | 0.6 | 8.3 | 6.9 | 2.4
COc1cc2ncnc(Nc3ccc(F)c(Cl)c3)c2cc1NC(=O)/C=C/CN1CCCCC1 [Dacomitinib] | 18.2 | 18.6 | 18 | 4.6 | 7.8 | 1.7 | 0.3 | 20.4 | 16.1 | 5.5
Cc1c2oc3c(C)ccc(C(=O)N[C@@H]4C(=O)N[C@H](C(C)C)C(=O)N5CCC[C@H]5C(=O)N(C)CC(=O)N(C)[C@@H](C(C)C)C(=O)O[C@@H]4C)c3nc-2c(C(=O)N[C@@H]2C(=O)N[C@H](C(C)C)C(=O)N3CCC[C@H]3C(=O)N(C)CC(=O)N(C)[C@@H](C(C)C)C(=O)O[C@@H]2C)c(N)c1=O [Dactinomycin] | 21.7 | 28.8 | 27.2 | 21.7 | 23.3 | 21.5 | 23.2 | 22.1 | 16.7 | 22.9
Cn1c(=O)n(-c2ccc(C(C)(C)C#N)cc2)c2c3cc(-c4cnc5ccccc5c4)ccc3ncc21 [Dactolisib] | 16.2 | 23.2 | 23 | 13.1 | 22.7 | 13 | 11.1 | 22.1 | 14.4 | 15.6
CO[C@@H](C(=O)N1Cc2[nH]nc(NC(=O)c3ccc(N4CCN(C)CC4)cc3)c2C1)c1ccccc1 [Danusertib] | 4.7 | 8 | 10.1 | 1.4 | 3.1 | 0 | 4.3 | 5.7 | 8.7 | 4.7
Cc1nc(Nc2ncc(C(=O)Nc3c(C)cccc3Cl)s2)cc(N2CCN(CCO)CC2)n1 [Dasatinib] | 8.4 | 7.7 | 20.4 | 5.1 | 2.8 | 0 | 4.5 | 19.9 | 17.1 | 5
COc1cccc2c1C(=O)c1c(O)c3c(c(O)c1C2=O)C[C@@](O)(C(C)=O)C[C@@H]3O[C@H]1C[C@H](N)[C@H](O)[C@H](C)O1 [Daunorubicin] | 4.6 | 7.7 | 9.7 | 5.8 | 10.1 | 4.9 | 7.6 | 6.7 | 6.4 | 6.4
CCc1cnn2c(NCc3ccc[n+]([O-])c3)cc(N3CCCC[C@H]3CCO)nc12 [Dinaciclib] | 16.4 | 28.3 | 25 | 18.5 | 17.6 | 13.1 | 18.8 | 22.1 | 10.3 | 20.2
CC(=O)O[C@@]12CO[C@@H]1C[C@H](O)[C@@]1(C)C(=O)[C@H](O)C3=C(C)[C@@H](OC(=O)[C@H](O)[C@@H](NC(=O)OC(C)(C)C)c4ccccc4)C[C@@](O)([C@@H](OC(=O)c4ccccc4)[C@H]21)C3(C)C [Docetaxel] | 11.7 | 15.5 | 15.5 | 0 | 12.1 | 12.4 | 0.6 | 10.8 | 13.9 | 9.1
COc1cccc2c1C(=O)c1c(O)c3c(c(O)c1C2=O)C[C@@](O)(C(=O)CO)C[C@@H]3O[C@H]1C[C@H](N)[C@H](O)[C@H](C)O1 [Doxorubicin] | 2.6 | 8 | 7.2 | 3.6 | 7.7 | 4.5 | 5.65 | 2.9 | 6.5 | 4.3
Cc1cc(Nc2cc(N3CCN(C)CC3)nc(/C=C/c3ccccc3)n2)n[nH]1 [ENMD-2076] | 6.2 | 10.5 | 13.7 | 5.2 | 6.1 | 4.1 | 4.95 | 11.5 | 8.6 | 6.7
Nc1ccccc1NC(=O)c1ccc(CNC(=O)OCc2cccnc2)cc1 [Entinostat] | 8.2 | 3.7 | 7.5 | 8.6 | 4.3 | 5 | 8.4 | 8.6 | 1.6 | 7.6

SMILES | drug sensitivity score (FMOC03) | drug sensitivity score (FMOC25_2) | drug sensitivity score (FMOC02_3) | drug sensitivity score (FMOC14) | drug sensitivity score (FMOC25_1) | drug sensitivity score (FMOC22) | drug sensitivity score (FMOC24) | drug sensitivity score (FMOC02_2) | drug sensitivity score (FMOC09) | drug sensitivity score (FMOC06)
C#Cc1cccc(Nc2ncnc3cc(OCCOC)c(OCCOC)cc23)c1 [Erlotinib] | 14.7 | 14.1 | 15.1 | 3.7 | 11.7 | 1.8 | 3.6 | 15.7 | 11 | 3
COc1cc([C@@H]2c3cc4c(cc3[C@@H](O[C@@H]3O[C@@H]5CO[C@@H](C)O[C@H]5[C@H](O)[C@H]3O)[C@H]3COC(=O)[C@H]23)OCO4)cc(OC)c1O [Etoposide] | 1.7 | 2.9 | 2.7 | 1.7 | 2.8 | 6.1 | 1.9 | 1.4 | 5.6 | 3.5
CO[C@H]1C[C@@H]2CC[C@@H](C)[C@@](O)(O2)C(=O)C(=O)N2CCCC[C@H]2C(=O)O[C@H]([C@H](C)C[C@@H]2CC[C@@H](OCCO)[C@H](OC)C2)CC(=O)[C@H](C)/C=C(\C)[C@@H](O)[C@@H](OC)C(=O)[C@H](C)C[C@H](C)/C=C/C=C/C=C/1C [Everolimus] | 2.8 | 6.7 | 10.2 | 1.7 | 9.2 | 6.7 | 7.5 | 10 | 3.9 | 5.8
CCn1c(=O)c(-c2ccc(Cl)cc2Cl)cc2cnc(Nc3ccc(N4CCNCC4)c(F)c3)nc21 [FRAX486] | 2.4 | 11.9 | 14.7 | 0.2 | 3.2 | 0.1 | 9.45 | 12.2 | 3.7 | 1.7
Cc1cnc(Nc2ccc(OCCN3CCCC3)cc2)nc1Nc1cccc(S(=O)(=O)NC(C)(C)C)c1 [Fedratinib] | 3.2 | 11.3 | 12.2 | 1.7 | 5.7 | 2.3 | 6.9 | 10.4 | 5.1 | 2.8
CON(C)C(=O)N1N=C(c2cc(F)ccc2F)S[C@@]1(CCCN)c1ccccc1 [Filanesib] | 4.4 | 12 | 12.7 | 0 | 6.1 | 6.3 | 0 | 6.8 | 7.5 | 0
CCCCCCCCc1ccc(CCC(N)(CO)CO)cc1 [Fingolimod] | 5.1 | 5.7 | 6.1 | 7.3 | 6.2 | 5.3 | 10.8 | 7.7 | 6 | 7
O=c1[nH]c(=O)n([C@H]2C[C@H](O)[C@@H](CO)O2)cc1F [Floxuridine] | 4.1 | 3.8 | 2.3 | 0.8 | 0.5 | 9.3 | 0 | 2.6 | 2.2 | 0.8
O=C(NOCCO)c1ccc2cncn2c1Nc1ccc(I)cc1F [GDC-0623] | 1.3 | 11.2 | 5.3 | 0.1 | 9.6 | 7.2 | 1.35 | 7.3 | 4 | 6.1
CCOC(=O)CCNc1cc(N2CCc3ccccc3CC2)nc(-c2ccccn2)n1 [GSK-J4] | 3.2 | 7.5 | 3.2 | 1.3 | 6.7 | 4.3 | 3.9 | 0 | 0 | 4
Cc1cc(Nc2cc(CN3CCOCC3)c3nc(C)c(Cc4ccc(Cl)cc4F)n3n2)n[nH]1 [Gandotinib] | 4.7 | 18.8 | 10.1 | 6.1 | 3.7 | 1.8 | 7.6 | 16.3 | 5.1 | 8.9
CC(C)c1cc(-c2n[nH]c(=O)n2-c2ccc3c(ccn3C)c2)c(O)cc1O [Ganetespib] | 11.3 | 17.5 | 19.7 | 10.9 | 11.6 | 14.3 | 8.9 | 16.2 | 12.3 | 3.3
CN(C)C1CCN(C(=O)c2ccc(NC(=O)Nc3ccc(-c4nc(N5CCOCC5)nc(N5CCOCC5)n4)cc3)cc2)CC1 [Gedatolisib] | 8.2 | 19.9 | 13.3 | 10.2 | 16.3 | 10.7 | 9.05 | 8.2 | 11.3 | 12.4
COc1cc2ncnc(Nc3ccc(F)c(Cl)c3)c2cc1OCCCN1CCOCC1 [Gefitinib] | 16.2 | 16.5 | 15.1 | 6.6 | 9.8 | 1.5 | 5.8 | 17.3 | 10.9 | 5.4
Nc1ccn([C@@H]2O[C@H](CO)[C@@H](O)C2(F)F)c(=O)n1 [Gemcitabine] | 2.9 | 14.6 | 17.3 | 0 | 7.6 | 12.7 | 6 | 16.3 | 10.5 | 5.4
CCN(CC)Cc1ccc2cc(COC(=O)Nc3ccc(C(=O)NO)cc3)ccc2c1 [Givinostat] | 6.1 | 4 | 5.9 | 4.4 | 5.2 | 4.7 | 5.45 | 7.1 | 1.5 | 5.2
